In brackets after ≈: the same amount, converted by molar mass. Like-named read-outs stand apart in the source and are kept apart here.
Legend:
[1] = Stability in whole blood; type: in vitro ADME, SD rat; conditions: for Rr (remaining ratio): whole blood, 37 °C
Protocol: Fresh blood was collected on the day of experiment from SD rats and pre-warmed in a water bath at 37 °C. 10 mM test compound or Ems stock solutions were prepared in DMSO, and then diluted with 45% MeOH/H2O to achieve 100 μM dosing solutions. Each dosing solution (2 μL) was incubated with 98 µL of blank blood at 37 °C in water bath for 0, 0.5, 1, 3, 7 and 24 h, respectively. At the end of incubation, for each sample, 100 μL water and 800 μL of stop solution (200 ng/mL tolbutamide plus 20 ng/mL buspirone in ACN) were immediately added to precipitate protein and centrifuge at 4,000 rpm for 20 min. An aliquot of supernatant (100 μL) was then extracted, mixed with 200 μL H2O and then shook at 800 rpm for about 10 min before submitting to LC-MS/MS analysis. The experiment was repeated two times.

[2] = system: S.h ATCC 35982; experiment: MIC, agar dilution, S.h ATCC 35982; type: cell-based; conditions: Staphylococcus hominis, ATCC35982
[3] = system: VISA ATCC 700699; experiment: MIC, agar dilution, VISA ATCC 700699; type: cell-based; conditions: Staphylococcus aureus
[4] = system: VISA ATCC 700698; experiment: MIC, agar dilution, VISA ATCC 700698; type: cell-based; conditions: Staphylococcus aureus
[5] = system: MRSA ATCC 43300; experiment: MIC, agar dilution, MRSA ATCC 43300; type: cell-based; conditions: Staphylococcus aureus
[6] = system: MRSA 13-23; experiment: MIC, agar dilution, MRSA 13-23; type: cell-based; conditions: Staphylococcus aureus
[7] = system: MRSA 16-34; experiment: MIC, agar dilution, MRSA 16-34; type: cell-based; conditions: Staphylococcus aureus
[8] = system: MRSE 13-3; experiment: MIC, agar dilution, MRSE 13-3; type: cell-based, S. epidermidis; conditions: Staphylococcus epidermidis
[9] = system: MRSA 13-18; experiment: MIC, agar dilution, MRSA 13-18; type: cell-based; conditions: Staphylococcus aureus
[10] = system: MRSA ATCC-B AA-1708; experiment: MIC, agar dilution, MRSA ATCC-BAA-1708 (mupA positive); type: cell-based; conditions: Staphylococcus aureus
[11] = system: MRSA ATCC -BAA-976; experiment: MIC, agar dilution, MRSA ATCC-BAA-976 (clindamycin-resistant); type: cell-based; conditions: Staphylococcus aureus
[12] = system: MSSA 16-1; experiment: MIC, agar dilution, MSSA 16-1 (clinical isolate); type: cell-based, S. aureus; conditions: Staphylococcus aureus
[13] = system: MSSA ATCC 29213; experiment: MIC, agar dilution, MSSA ATCC 29213; type: cell-based, S. aureus; conditions: Staphylococcus aureus
[14] = system: MSSE ATCC 12228; experiment: MIC, agar dilution, MSSE ATCC 12228; type: cell-based, S. epidermidis; conditions: Staphylococcus epidermidis
[15] = system: MSSE 16-5; experiment: MIC, agar dilution, MSSE 16-5 (clinical isolate); type: cell-based, S. epidermidis; conditions: Staphylococcus epidermidis
[16] = system: S.s ATCC 15305; experiment: MIC, agar dilution, S.s ATCC 15305; type: cell-based; conditions: Staphylococcus saprophyticus, ATCC15305
[17] = system: MSSA 15; experiment: MIC, agar dilution, MSSA 15 (clinical isolate); type: cell-based, S. aureus; conditions: Staphylococcus aureus
[18] = system: MRSE 16-5; experiment: MIC, agar dilution, MRSE 16-5; type: cell-based, S. epidermidis; conditions: Staphylococcus epidermidis
[19] = system: drug-susceptible strains: MSSA, MSSE, S. saprophyticus, S. hominis; experiment: MIC across the panel of drug-susceptible Gram-positive strains; type: cell-based; conditions: drug-susceptible Gram-positive strains of Table 1
Source text: SAR study for antibacterial activity against drug-susceptible Gram-positive bacteria was initially carried out, taking Lev and compound 1 as reference drugs. […] Bacteria strains used in this study were from the ATCC collection and clinical isolates in Chinese hospitals. The influence of the methylenedioxy ring was explored first, and compounds 6 and 10 were created and tested.

[20] = VISA ATCC 700699, read-out: MIC
[21] = VISA ATCC 700698, read-out: MIC
[22] = MRSA ATCC-BAA-1708, mupA positive (mupirocin resistance), read-out: MIC
[23] = MSSA 16-1, isolated from patients in China, read-out: MIC
[24] = S. saprophyticus ATCC 15305, read-out: MIC
[25] = S. hominis ATCC 35982, read-out: MIC
[26] = MRSA ATCC-BAA-976, clindamycin-resistant S. aureus, read-out: MIC
[27] = ATCC12228, MSSE ATCC 12228, read-out: MIC
[28] = MSSE 16-5, isolated from patients in China, read-out: MIC
[29] = MSSA 15, isolated from patients in China, read-out: MIC

SMILES	MIC [2] [µg/mL]	MIC [3, 20] [µg/mL]	MIC [4, 21] [µg/mL]	MIC ([5]; MRSA ATCC 43300, read-out: MIC) [µg/mL]	MIC ([6]; MRSA 13-23, read-out: MIC) [µg/mL]	MIC ([7]; MRSA 16-34, read-out: MIC) [µg/mL]	MIC ([8]; MRSE 13-3, read-out: MIC) [µg/mL]	MIC ([9]; MRSA 13-18, read-out: MIC) [µg/mL]	MIC [10, 22] [µg/mL]	MIC [11] [µg/mL]	MIC [12, 23] [µg/mL]	MIC [13] [µg/mL]	MIC [15] [µg/mL]	MIC [16, 24] [µg/mL]	MIC ([17]; MSSA) [µg/mL]	MIC ([18]; MRSE 16-5, read-out: MIC) [µg/mL]	MIC [2, 25] [µg/mL]	antimicrobial activity [19]	MIC [11, 26] [µg/mL]	MIC ([13]; MSSA ATCC 29213, read-out: MIC) [µg/mL]	other results
CCOC(=O)[C@H](CCc1ccccc1)N[C@@H](C)C(=O)N1CCC[C@H]1C(=O)O [Ems, enalapril]																					stability in whole blood [1]: completely decomposed; Rr (remaining ratio) ([1]; 0 h): 100%; Rr (remaining ratio) ([1]; 0.5 h): 37.5%; Rr (remaining ratio) ([1]; 1 h): 9.1%; Rr (remaining ratio) ([1]; 3 h): 0%; Rr (remaining ratio) ([1]; 7 h): 0%; Rr (remaining ratio) ([1]; 24 h): 0%
C[C@H]1COc2c(N3CCN(C)CC3)c(F)cc3c(=O)c(C(=O)O)cn1c23 [Lev, levofloxacin, reference compound]	0.125 (≈ 0.346 µM)	8 (≈ 22.1 µM)	32 (≈ 88.6 µM)	32 (≈ 88.6 µM)	64 (≈ 177 µM)	64 (≈ 177 µM)	32 (≈ 88.6 µM)	32 (≈ 88.6 µM)	16 (≈ 44.3 µM)	0.125 (≈ 0.346 µM)	0.25 (≈ 0.692 µM)	0.125 (≈ 0.346 µM)	0.125 (≈ 0.346 µM)	1 (≈ 2.77 µM)	0.125 (≈ 0.346 µM)	8 (≈ 22.1 µM)					MIC ([14]; ATCC12228, 18 h, MSSE ATCC 12228, read-out: MIC): 0.126 µg/mL (≈ 0.349 µM)
COc1ccc2c(c[n+]3c4c2ccc2c5c(cc(c24)CC3)OCO5)c1O [compound 1, reference compound]	1									1		0.5	0.5		4						MIC [3]: 0.5 µg/mL; MIC [4]: 1 µg/mL; MIC [5]: 0.5 µg/mL; MIC ([6]; MRSA): 1 µg/mL; MIC ([7]; MRSA): 0.5 µg/mL; MIC ([8]; MRSE): > 64 µg/mL; MIC ([9]; MRSA): 1 µg/mL; MIC [10]: 0.5 µg/mL; MIC ([12]; MSSA): 1 µg/mL; MIC ([14]; ATCC12228): 0.5 µg/mL; MIC [16]: > 64 µg/mL; MIC ([18]; MRSE): 0.5 µg/mL
COc1ccc2c(c[n+]3c4c2ccc2c(OC)c(OC)cc(c24)CC3)c1O [compound 6, 1,2-Dimethoxy-8-hydroxy-9-methoxycycloberberine Chloride]		> 64	> 64	> 64	> 64	> 64	> 64	> 64	> 64		> 64			> 64		> 64	> 64	lost the antimicrobial activities partially or completely	> 64	> 64	MIC [14, 27]: > 64 µg/mL; MIC [15, 28]: > 64 µg/mL; MIC [17, 29]: > 64 µg/mL
COc1ccc2c(c[n+]3c4c2ccc2c(O)c(O)cc(c24)CC3)c1O [compound 10, 1,2,8-Trihydroxy-9-methoxycycloberberine Chloride]		32	32	32	64	16	32	32	16		32			32		16	32	lost the antimicrobial activities partially or completely	64	32	MIC [14, 27]: 8 µg/mL; MIC [15, 28]: 16 µg/mL; MIC [17, 29]: 16 µg/mL
